Results as given in ChEMBL document CHEMBL4699447, “Initial Analysis of the Arylomycin D Antibiotics” (2020).

Key:
Assay type in all cases: functional
[1] = system: Staphylococcus epidermidis; test: Antimicrobial activity against Staphylococcus epidermidis RP62A assessed as reduction in microbial growth after 24 hrs by CLSI based broth microdilution method
[2] = system: Yersinia pestis; test: Antimicrobial activity against Yersinia pestis KIM6+ assessed as reduction in microbial growth after 24 hrs by CLSI based broth microdilution method
[3] = system: Escherichia coli; test: Antimicrobial activity against Escherichia coli K-12 assessed as reduction in microbial growth after 24 hrs by CLSI based broth microdilution method
[4] = system: Staphylococcus aureus; test: Antimicrobial activity against methicillin-resistant Staphylococcus aureus USA300 assessed as reduction in microbial growth after 24 hrs by CLSI based broth microdilution method
[5] = system: Escherichia coli; test: Antimicrobial activity against Escherichia coli IMP BAS901 assessed as reduction in microbial growth after 24 hrs by CLSI based broth microdilution method

SMILES | MIC [1] [µg/mL] | MIC [2] [µg/mL] | MIC [3] [µg/mL] | MIC [4] [µg/mL] | MIC [5] [µg/mL]
CCCCCCCCCCCCCCCC(=O)NCCC(=O)N[C@@H](CS(=O)(=O)O)C(=O)N(C)[C@@H]1C(=O)N[C@@H](C)C(=O)N[C@H](C(=O)O)Cc2ccc(O)c(c2)-c2cc1ccc2O | 4 | 2 | > 64 | 16 | > 64
CCCCCCCCCCCCCCCC(=O)NCCC(=O)N[C@@H](CS(=O)(=O)O)C(=O)N(C)[C@@H]1C(=O)N[C@@H](C)C(=O)N[C@H](C(=O)O)Cc2ccc(OS(=O)(=O)O)c(c2)-c2cc1cc(OS(=O)(=O)O)c2O[C@@H]1O[C@@H](C)[C@H](O)[C@@H](O)[C@H]1O | > 64 | > 64 | – | > 64 | > 64
CCCCCCCCCCCCCCCC(=O)NCCC(=O)N[C@H](CS(=O)(=O)O)C(=O)N(C)[C@@H]1C(=O)N[C@@H](C)C(=O)N[C@H](C(=O)O)Cc2ccc(OS(=O)(=O)O)c(c2)-c2cc1cc(OS(=O)(=O)O)c2O[C@@H]1O[C@@H](C)[C@H](O)[C@@H](O)[C@H]1O | > 64 | > 64 | – | > 64 | > 64
CCCCCCCCCCCCCCCC(=O)N(C)[C@H](CO)C(=O)N[C@H](C)C(=O)NCC(=O)N(C)[C@@H]1C(=O)N[C@@H](C)C(=O)N[C@H](C(=O)O)Cc2ccc(OS(=O)(=O)O)c(c2)-c2cc1cc(OS(=O)(=O)O)c2O[C@@H]1O[C@@H](C)[C@H](O)[C@@H](O)[C@H]1O | > 64 | > 64 | – | > 64 | > 64
CCCCCCCCCCCCCCCC(=O)NCCC(=O)N[C@@H](CS(=O)(=O)O)C(=O)N(C)[C@@H]1C(=O)N[C@@H](C)C(=O)N[C@H](C(=O)O)Cc2ccc(O)c(c2)-c2cc1cc(O)c2O[C@@H]1O[C@@H](C)[C@H](O)[C@@H](O)[C@H]1O | 8 | 4 | > 64 | 32 | 64
CCCCCCCCCCCCCCCC(=O)N(C)[C@H](CO)C(=O)N[C@H](C)C(=O)NCC(=O)N(C)[C@@H]1C(=O)N[C@@H](C)C(=O)N[C@H](C(=O)O)Cc2ccc(O)c(c2)-c2cc1ccc2O [ARYLOMYCIN C16] | 0.25 | – | > 64 | > 64 | 16
